Test results as given in patent US10501437B2 (Bayer Pharma Aktiengesellschaft, priority 2016, dated 2019).

Assay: Storage stability and micronization of crystalline material from the cubic dosing curve crystallization
Format: physicochemical
Details: crystalline material obtained from ethanol/water by cubic dosing curve crystallization

stability during storage: good stability
Structure (SMILES): CC(C)(O)CCn1cc2cc(NC(=O)c3cccc(C(F)(F)F)n3)c(C(C)(C)O)cc2n1 [compound (I), N-[2-(3-Hydroxy-3-methylbutyl)-6-(2-hydroxypropan-2-yl)-2H-indazol-5-yl]-6-(trifluoromethyl)pyridine-2-carboxamide]
